PubChem BioAssay (NCI)
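Exposure lasted 48 hours, with cells grown in 96-well plates and compounds tested at five concentrations. Here, GI50 denotes the concentration required for 50% inhibition of growth. The concentration for full growth arrest is given as TGI.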

Assays:
Assay in all cases: DTP human tumour cell line panel, 48 h
HCC-2998 colon = tested on: HCC-2998 colon
SK-MEL-2 melanoma = tested on: SK-MEL-2 melanoma
SN12C renal = tested on: SN12C renal
SNB-19 CNS = tested on: SNB-19 CNS
SK-OV-3 ovarian = tested on: SK-OV-3 ovarian
KM12 colon = tested on: KM12 colon
ACHN renal = tested on: ACHN renal
HL-60(TB) leukemia = tested on: HL-60(TB) leukemia

| SMILES | GI50 (HCC-2998 colon) | TGI (HCC-2998 colon) | GI50 (SK-MEL-2 melanoma) | TGI (SK-MEL-2 melanoma) | GI50 (SN12C renal) | TGI (SN12C renal) | GI50 (SNB-19 CNS) | TGI (SNB-19 CNS) | GI50 (SK-OV-3 ovarian) | TGI (SK-OV-3 ovarian) | GI50 (KM12 colon) | TGI (KM12 colon) | GI50 (ACHN renal) | TGI (ACHN renal) | GI50 (HL-60(TB) leukemia) | TGI (HL-60(TB) leukemia) |
| --- | --- | --- | --- | --- | --- | --- | --- | --- | --- | --- | --- | --- | --- | --- | --- | --- |
| CN[C@@H](C)C(=O)N[C@H](C(=O)N1CCC[C@H]1C(=O)Nc1sc(-c2ncco2)nc1-c1ccccc1)C1CCCCC1 | 25.7 µM | 65.7 µM | 16.3 µM | > 100 µM | 38.9 µM | > 71.9 µM | 30 µM | 98.7 µM | 0.0336 µM | 0.299 µM | 43.3 µM | > 100 µM | 19.3 µM | > 54.9 µM | 16.9 µM | 39.1 µM |
| O=C1CCC(N2Cc3cc(CNC(=O)C(F)(F)c4ccc(Cl)cc4)ccc3C2=O)C(=O)N1 (stereo not drawn) | 14 µM | > 100 µM | > 100 µM | > 100 µM | > 100 µM | > 100 µM | > 87.1 µM | > 100 µM | > 100 µM | > 100 µM | 67.1 µM | > 100 µM | > 100 µM | > 100 µM | < 0.01 µM | 0.03 µM |
| O=C1OCC2=C1C(c1ccccc1)c1cc3c(cc1N2)OCO3 (stereo not drawn) | 0.0333 µM | > 38.7 µM | 0.494 µM | 41.7 µM | 0.0557 µM | > 65 µM | 0.0568 µM | > 100 µM | 0.0308 µM | 1.39 µM | < 0.0167 µM | – | 0.0946 µM | 36.4 µM | 0.0214 µM | 0.0573 µM |
| CN(C)CCCn1c(=O)c2ccccc2c2ccccc21 | 16.4 µM | 34.8 µM | 16.5 µM | 33.5 µM | 16.9 µM | > 100 µM | 23.3 µM | > 100 µM | 26.6 µM | > 100 µM | 15.5 µM | 66.7 µM | 4.84 µM | > 100 µM | 21.8 µM | 69.5 µM |
| CCCN(CCS(C)(=O)=O)Cc1ccc(-c2ccc3ncnc(Nc4ccc(OCc5cccc(F)c5)c(Cl)c4)c3c2)o1 | > 25 µM | > 25 µM | > 25 µM | > 25 µM | > 25 µM | > 25 µM | > 25 µM | > 25 µM | 0.0197 µM | 0.192 µM | > 25 µM | > 25 µM | 1.23 µM | > 25 µM | 8.14 µM | > 25 µM |
| Fc1ccc(/C=N/n2c(-c3ccc(F)c(Cl)c3)nn(CNc3ccccc3C(F)(F)F)c2=S)cc1 | 89.7 µM | > 100 µM | 46.6 µM | > 100 µM | 39.3 µM | > 100 µM | > 100 µM | > 100 µM | > 100 µM | > 100 µM | 29.3 µM | > 100 µM | 81.1 µM | > 100 µM | 39.4 µM | > 100 µM |
| C/C(=C\c1ccc2ccccc2c1)[N+](=O)[O-] | 2.08 µM | 4.23 µM | 1.85 µM | 3.35 µM | 1.74 µM | 3.23 µM | 6.15 µM | 19.7 µM | 14.8 µM | 28.7 µM | 2.11 µM | 4.19 µM | 1.79 µM | 3.34 µM | 2.03 µM | 5.49 µM |
| N#CC1(C(N)=O)C(c2ccc(Cl)cc2)CC(=O)CC1c1ccc(Cl)cc1 (stereo not drawn) | 14.8 µM | 29.9 µM | 16.1 µM | 31.1 µM | 19.4 µM | 35.3 µM | 17.7 µM | 33.5 µM | 20.3 µM | 45 µM | 19.4 µM | 43.9 µM | 21.8 µM | 57.8 µM | 20.2 µM | 51.6 µM |
| COc1ccc(-c2[nH]c3ccccc3c2-c2ccc(OC)cc2)cc1 | 6.11 µM | 21.1 µM | 8.31 µM | 25.6 µM | 6.73 µM | 23.5 µM | 5.06 µM | 20.6 µM | 5.85 µM | 26.6 µM | 2.48 µM | 6.64 µM | 11.9 µM | 28.3 µM | 2.03 µM | 6.03 µM |
| O=C(/C=C/c1cc2ccccc2[nH]c1=O)/C=C/c1cc2ccccc2[nH]c1=O | 5.28 µM | 9.01 µM | > 24.7 µM | > 30.6 µM | 12.6 µM | > 86.6 µM | 21.1 µM | > 100 µM | 31.4 µM | > 100 µM | 4.32 µM | 8.59 µM | 11.2 µM | > 95.3 µM | > 32.3 µM | > 100 µM |
| O=C1OC(=O)C(=C\c2ccc3c(c2)OCO3)/C1=C/c1ccc2c(c1)OCO2 | – | > 100 µM | – | > 100 µM | – | > 100 µM | – | > 100 µM | – | > 100 µM | – | > 100 µM | – | > 100 µM | – | > 88.1 µM |
| CC(C)C[C@H](NC(=O)CNC(=O)c1cc(Cl)ccc1Cl)B1OC(=O)CC(CC(=O)O)(C(=O)O)O1 (stereo partly drawn) | 0.0326 µM | 0.105 µM | 0.0399 µM | 0.239 µM | 0.0862 µM | 0.982 µM | 0.209 µM | > 100 µM | 0.261 µM | 29.6 µM | 0.105 µM | 0.607 µM | 0.0389 µM | > 59.9 µM | 0.0533 µM | > 100 µM |
